US11452727B2, “Combination therapy for treating cancer” (Epizyme, Inc., priority 2017, dated 2022)

Key:
Assay in all cases: In vitro combination study with tazemetostat, cell proliferation (Cell Titer Glo)
[1] = test system: A427; conditions: A427; 7 days tazemetostat pre-treatment, 6 days co-treatment with second agent
[2] = test system: A549; conditions: 7 days tazemetostat pre-treatment, 6 days co-treatment with second agent
[3] = test system: NCI-H1299; conditions: 7 days tazemetostat pre-treatment, 6 days co-treatment with second agent
[4] = test system: NCI-H1573; conditions: 7 days tazemetostat pre-treatment, 6 days co-treatment with second agent
Procedure: (§1) Initial proliferation studies were performed to determine the IC50 of tazemetostat in each cell line. For the screen, tazemetostat was used at concentrations bracketed around the IC50 value. If 50% inhibitory concentration was not reached then tazemetostat was tested starting at 10 μM.
(§2) In order to study the effect of dual combination of tazemetostat and a second agent on cell proliferation, cells in log-linear phase growth rate were pre-treated with various concentrations of tazemetostat or DMSO for 7 days in flasks, plated in 384-well plates in the absence of compounds and co-treated on day 8 with tazemetostat or DMSO and the second agent serially diluted for additional 6 days (as depicted in FIG. 1). On day 15, plates were developed for endpoint analysis using Cell Titer Glo to measure ATP content, which was used as an indicator of cell viability. DMSO concentration was kept constant throughout the assay at 0.15% v/v.
(§3) NCI-H1573 was cultured in DMEM: F12 Medium containing the following components: 0.02 mg/ml insulin, 0.01 mg/ml transferrin, 25 nM sodium selenite, 50 nM Hydrocortisone, 1 ng/ml Epidermal Growth Factor, 0.01 mM ethanolamine, 0.01 mM phosphorylethanolamine, 100 pM triiodothyronine, 0.5% (w/v) bovine serum albumin, 0.5 mM sodium pyruvate, 4.5 mM L-glutamine and 1% v/v Pen/Strep.

[5] = test system: NCI-H1703; conditions: 7 days tazemetostat pre-treatment, 6 days co-treatment with second agent
[6] = test system: NCI-H1793; conditions: 7 days tazemetostat pre-treatment, 6 days co-treatment with second agent
[7] = test system: NCI-H1993; conditions: 7 days tazemetostat pre-treatment, 6 days co-treatment with second agent
[8] = test system: NCI-H2030; conditions: 7 days tazemetostat pre-treatment, 6 days co-treatment with second agent
Procedure: as §1, §2

[9] = test system: NCI-H2110; conditions: 7 days tazemetostat pre-treatment, 6 days co-treatment with second agent
Procedure: as §1, §2

[10] = test system: NCI-H2122; conditions: 7 days tazemetostat pre-treatment, 6 days co-treatment with second agent
[11] = test system: NCI-H23; conditions: 7 days tazemetostat pre-treatment, 6 days co-treatment with second agent
[12] = test system: NCI-H460; conditions: 7 days tazemetostat pre-treatment, 6 days co-treatment with second agent
Procedure: as §1, §2
All cell lines were obtained from American Type Culture Collection (ATCC; Rockville, Md.). […] A427, Calu-3, Calu-6 cell lines were cultured in EMEM+10% Fetal bovine serum (FBS)+1% v/v Penicillin/Streptomycin (P/S).

[13] = test system: NCI-H522; conditions: 7 days tazemetostat pre-treatment, 6 days co-treatment with second agent
Procedure: as §1, §2

[14] = test system: NCI-H661; conditions: 7 days tazemetostat pre-treatment, 6 days co-treatment with second agent
[15] = test system: NCI-H838; conditions: 7 days tazemetostat pre-treatment, 6 days co-treatment with second agent
Procedure: as §1, §2, §3

[16] = test system: Calu-3; conditions: 7 days tazemetostat pre-treatment, 6 days co-treatment with second agent
[17] = test system: Calu-6; conditions: 7 days tazemetostat pre-treatment, 6 days co-treatment with second agent
Procedure: as §1, §2

[18] = test system: HCC827; conditions: 7 days tazemetostat pre-treatment, 6 days co-treatment with second agent
Procedure: as §1, §2, §3

Structure (SMILES)	combinatorial effect with tazemetostat (Loewe volume class) [1]	combinatorial effect with tazemetostat (Loewe volume class) [2]	combinatorial effect with tazemetostat (Loewe volume class) [3]	combinatorial effect with tazemetostat (Loewe volume class) [4]	combinatorial effect with tazemetostat (Loewe volume class) [5]	combinatorial effect with tazemetostat (Loewe volume class) [6]	combinatorial effect with tazemetostat (Loewe volume class) [7]	combinatorial effect with tazemetostat (Loewe volume class) [8]	combinatorial effect with tazemetostat (Loewe volume class) [9]	combinatorial effect with tazemetostat (Loewe volume class) [10]	combinatorial effect with tazemetostat (Loewe volume class) [11]	combinatorial effect with tazemetostat (Loewe volume class) [12]	combinatorial effect with tazemetostat (Loewe volume class) [13]	combinatorial effect with tazemetostat (Loewe volume class) [14]	combinatorial effect with tazemetostat (Loewe volume class) [15]	combinatorial effect with tazemetostat (Loewe volume class) [16]	combinatorial effect with tazemetostat (Loewe volume class) [17]	combinatorial effect with tazemetostat (Loewe volume class) [18]
CC(=O)O[C@@]12CO[C@@H]1C[C@H](O)[C@@]1(C)C(=O)[C@H](O)C3=C(C)[C@@H](OC(=O)[C@H](O)[C@@H](NC(=O)OC(C)(C)C)c4ccccc4)C[C@@](O)([C@@H](OC(=O)c4ccccc4)[C@H]21)C3(C)C [Docetaxel, docetaxel]	Syn. (Loewe volumes greater than 1 denoted “synergy”)	Add. (A value between −1 and 1 denoted “additivity”)	Syn. (Loewe volumes greater than 1 denoted “synergy”)	Add. (A value between −1 and 1 denoted “additivity”)	Add. (A value between −1 and 1 denoted “additivity”)	Syn. (Loewe volumes greater than 1 denoted “synergy”)	Add. (A value between −1 and 1 denoted “additivity”)	Syn. (Loewe volumes greater than 1 denoted “synergy”)	Add. (A value between −1 and 1 denoted “additivity”)	Add. (A value between −1 and 1 denoted “additivity”)	Add. (A value between −1 and 1 denoted “additivity”)	Syn. (Loewe volumes greater than 1 denoted “synergy”)	Add. (A value between −1 and 1 denoted “additivity”)	Syn. (Loewe volumes greater than 1 denoted “synergy”)	Add. (A value between −1 and 1 denoted “additivity”)	Syn. (Loewe volumes greater than 1 denoted “synergy”)	Add. (A value between −1 and 1 denoted “additivity”)	Add. (A value between −1 and 1 denoted “additivity”)
Nc1cc(C(F)(F)F)c(-c2cc(N3CCOCC3)nc(N3CCOCC3)n2)cn1 [BKM-120]	Syn. (Loewe volumes greater than 1 denoted “synergy”)	Add. (A value between −1 and 1 denoted “additivity”)	Add. (A value between −1 and 1 denoted “additivity”)	Add. (A value between −1 and 1 denoted “additivity”)	Add. (A value between −1 and 1 denoted “additivity”)	Syn. (Loewe volumes greater than 1 denoted “synergy”)	Syn. (Loewe volumes greater than 1 denoted “synergy”)	Add. (A value between −1 and 1 denoted “additivity”)	Add. (A value between −1 and 1 denoted “additivity”)	Add. (A value between −1 and 1 denoted “additivity”)	Syn. (Loewe volumes greater than 1 denoted “synergy”)	Add. (A value between −1 and 1 denoted “additivity”)	Add. (A value between −1 and 1 denoted “additivity”)	Syn. (Loewe volumes greater than 1 denoted “synergy”)	Syn. (Loewe volumes greater than 1 denoted “synergy”)	Add. (A value between −1 and 1 denoted “additivity”)	Add. (A value between −1 and 1 denoted “additivity”)	Add. (A value between −1 and 1 denoted “additivity”)
C=CCn1c(=O)c2cnc(Nc3ccc(N4CCN(C)CC4)cc3)nc2n1-c1cccc(C(C)(C)O)n1 [MK-1775]	Syn. (Loewe volumes greater than 1 denoted “synergy”)	Add. (A value between −1 and 1 denoted “additivity”)	Add. (A value between −1 and 1 denoted “additivity”)	Syn. (Loewe volumes greater than 1 denoted “synergy”)	Syn. (Loewe volumes greater than 1 denoted “synergy”)	Syn. (Loewe volumes greater than 1 denoted “synergy”)	Add. (A value between −1 and 1 denoted “additivity”)	Syn. (Loewe volumes greater than 1 denoted “synergy”)	Add. (A value between −1 and 1 denoted “additivity”)	Add. (A value between −1 and 1 denoted “additivity”)	Syn. (Loewe volumes greater than 1 denoted “synergy”)	Add. (A value between −1 and 1 denoted “additivity”)	Syn. (Loewe volumes greater than 1 denoted “synergy”)	Syn. (Loewe volumes greater than 1 denoted “synergy”)	Add. (A value between −1 and 1 denoted “additivity”)	Add. (A value between −1 and 1 denoted “additivity”)	Syn. (Loewe volumes greater than 1 denoted “synergy”)	Add. (A value between −1 and 1 denoted “additivity”)
CC(=O)c1c(C)c2cnc(Nc3ccc(N4CCNCC4)cn3)nc2n(C2CCCC2)c1=O [Palbociclib, palbociclib]	Syn. (Loewe volumes greater than 1 denoted “synergy”)	Add. (A value between −1 and 1 denoted “additivity”)	Anta. (volumes <−1 denoted “antagonism”)	Syn. (Loewe volumes greater than 1 denoted “synergy”)	Anta. (volumes <−1 denoted “antagonism”)	Syn. (Loewe volumes greater than 1 denoted “synergy”)	Syn. (Loewe volumes greater than 1 denoted “synergy”)	Add. (A value between −1 and 1 denoted “additivity”)	Add. (A value between −1 and 1 denoted “additivity”)	Anta. (volumes <−1 denoted “antagonism”)	Syn. (Loewe volumes greater than 1 denoted “synergy”)	Add. (A value between −1 and 1 denoted “additivity”)	No eff.	Syn. (Loewe volumes greater than 1 denoted “synergy”)	Add. (A value between −1 and 1 denoted “additivity”)	Add. (A value between −1 and 1 denoted “additivity”)	Add. (A value between −1 and 1 denoted “additivity”)	Add. (A value between −1 and 1 denoted “additivity”)
